Results taken from patent publication US20250338846A1, “COMPOSITIONS HAVING PESTICIDAL UTILITY AND PROCESSES RELATED THERETO” (CORTEVA AGRISCIENCE, LLC, priority 2022, published 2025).

How the values were obtained:
Type in all cases: in vivo
[1] = tested on: Sweet Potato Whitefly (Bemisia tabaci, BEMITA); assay: Bioassay 2: Sweet Potato Whitefly, spray on cotton seedlings at crawler emergence, nymphs counted 7-9 days after treatment
Description: (§1) Stock solutions were prepared with Formula One as well as for each of the active ingredients individually. Test solutions were prepared from the stock solutions. Test solutions were prepared containing Formula One, the individual active ingredients, and mixtures of Formula One with each of the active ingredients. The test solutions for Formula One and the individual active ingredients were prepared by adding 500 μL of stock solution to a 25 mL glass vial, then adding 500 μL of acetone, followed by the addition of 9 mL water with 0.025% Tween®) 20 to create a 0.001% (w/v) solution. The test solutions containing mixtures of Formula One and the individual active ingredients were prepared by adding 500 μL of the active ingredient stock solution to a 25 mL glass vial, followed by 500 μL of the Formula One stock solution, then by the addition of 9 mL water with 0.025% Tween®) 20 to create a test solution containing 0.001% (w/v) Formula One and 0.001% (w/v) of the active ingredient. Each test solution was serially diluted to create desired doses of test solutions (0.001% (w/v), 0.0001% (w/v), 0.00001% (w/v), 0.000001% (w/v), 0.0000001% (w/v), and 0.00000001% (w/v)).
(§2) The test solutions were tested against SPW using the following procedure: Cotton seedlings grown in 3-inch pots, pruned so that only one true leaf remained, were used as test substrate. Adult B. tabaci were allowed to colonize the cotton plants and lay eggs for 24 hours after which all adults were removed from the plants using compressed air. Plants were monitored for egg development and, when crawler emergence was underway (>25% emergence based on visual examination using a microscope), the plants were sprayed using the test solutions and methods described above for green peach aphids (GPA). Treated plants were held in a holding room at approximately 25° C. and ambient relative humidity (RH) prior to grading. Evaluation was conducted by counting the number of developed 2-3 instar nymphs per plant under a microscope 7-9 days after treatment. Percent control was measured using Abbott's correction formula (W. S. Abbott, J. Econ. Entomol. 18 (1925), pp. 265-267) as follows:
where X=No. of live nymphs on solvent check plants and Y=No. of live nymphs on treated plants. In Table B2 the “Expected % Control” was calculated using the method described in Colby S. R., Weeds, 1967, 15, 20-22. Bioassay 3: Western Flower Thrips (Frankliniella occidentalis, FRANOC) (“WFT”).

[2] = tested on: Diamondback Moth (Plutella xylostella, PLUTMA); assay: Bioassay 6: Diamondback Moth, artificial lepidopteran diet, live larvae after 5 days; settings: DBM; AI alone 0.04 % w/v
Description: where X=No. of live nymphs on solvent check and Y=No. of live nymphs on treated bean segments. In Table B5 the “Expected % Control” was calculated using the method described in Colby S. R., Weeds, 1967, 15, 20-22. Bioassay 6: Beet Armyworm (Spodoptera exigua, LAPHEG) (BAW), and Diamondback Moth (Plutella xylostella, PLUTMA) (DBM).
(§3) Stock solutions were prepared with Formula One as well as for each of the active ingredients individually. Test solutions were prepared from the stock solutions. Test solutions were prepared containing Formula One, the individual active ingredients, and mixtures of Formula One with each of the active ingredients. The test solution for Formula One was prepared by adding 500 μL of the stock solution to a 25 mL glass vial, then adding 500 μL of a 9:1 mixture of acetone: water. The individual active ingredients were prepared by adding 500 μL of stock solution to a 25 mL glass vial, then adding 500 μL of a 9:1 mixture of acetone: water. The test solutions containing mixtures of Formula One and the individual active ingredients were prepared by adding 500 μL of the active ingredient stock solution to a 25 mL glass vial, followed by 500 μL of the Formula One stock solution, creating a test solution containing 4000 ppm Formula One and 0.4% (w/v) of the active ingredient. Each test solution was serially diluted to create desired doses of test solutions (0.4% (w/v), 0.04% (w/v), 0.004% (w/v), 0.0004% (w/v), 0.00004% (w/v), and 0.000004% (w/v)). In test solutions containing mixtures of Formula One and the active ingredients, the active ingredients were diluted as described above, but the Concentration of Formula One was held constant (0.4% (w/v)). The highest dose test solution (0.4% (w/v)) was discarded, leaving 5 test solution concentrations used in the test.
The test solutions were tested against BAW and DBM using the following procedure: An artificial lepidopteran diet (Multispecies Lepidopteran Diet, Southland Products) was distributed in 128-cell bioassay trays (Frontier Agricultural Sciences™). 50 μL of test solution was pipetted into a cell in the bioassay tray. (The test solution doses of 0.04% (w/v), 0.004% (w/v), 0.0004% (w/v), 0.00004% (w/v), and 0.000004% (w/v) translated to concentrations of 5, 0.5, 0.05, 0.005, and 0.0005 ug/cm^2 on the diet, respectively.) A reference treatment (solvent check) was treated with the diluent only. […] After 5 days, the number of live larvae were recorded from each cell and percent control was measured using Abbott's correction formula (W. S. Abbott, J. Econ. Entomol. 18 (1925), pp. 265-267) as follows:
where X=No. of live larvae on solvent check and Y=No. of live larvae on treated diet. In Table B6 the “Expected % Control” was calculated using the method described in Colby S. R., Weeds, 1967, 15, 20-22. […]

[3] = tested on: Diamondback Moth (Plutella xylostella, PLUTMA); assay: Bioassay 9: Diamondback Moth, leaves of track-sprayed cabbage plants, mortality and feeding damage scored
Description: (§4) where X=No. of live nymphs on solvent check plants and Y=No. of live nymphs on treated plants. In Table B2 the “Expected % Control” was calculated using the method described in Colby S. R., Weeds, 1967, 15, 20-22. Bioassay 9: Diamondback Moth (Plutella xylostella, PLUTMA) (DBM).
as §3
Cabbage seedlings, grown in 3-inch pots with 2-3 small (3-5 centimeter (cm)) true leaves, were used as test substrate. Cabbage plants were sprayed with desired concentrations of Formula One and active ingredients or their mixtures using a track Sprayer. Reference plants (solvent check) were sprayed with diluent only (0.025% Tween® 20 and 10% acetone:methanol (1:1) in water). The sprayed cabbage plants were allowed to dry for 1 hour, after which leaves from each treatment were placed in a cell of a plastic tray. One leaf per cell and 8 replicates for each cell. The tested doses ranged between 0.000001% (w/v) to 0.0002% (w/v). One 2nd instar DBM larvae were placed in each cell of the tray and allowed to feed on the cabbage foliage for […] after which the mortality and feeding damage were scored. Test trays were held at approximately 26° C. and ambient relative humidity (RH) prior to grading. The number of live larvae were recorded from each cell and percent control was measured using Abbott's correction formula (W. S. Abbott, J. Econ. Entomol. 18 (1925), pp. 265-267) as follows:
where X=No. of live larvae on solvent check and Y=No. of live larvae on treated diet. In Table B6 the “Expected % Control” was calculated using the method described in Colby S. R., Weeds, 1967, 15, 20-22.

[4] = tested on: Cotton Aphid (Aphis gossypii, APHIGO); assay: Bioassay 7: Cotton Aphid, foliar spray on infested cotton seedlings, live aphids counted three days after treatment
Description: where X=No. of live larvae on solvent check and Y=No. of live larvae on treated diet. In Table B6 the “Expected % Control” was calculated using the method described in Colby S. R., Weeds, 1967, 15, 20-22. Bioassay 7: Cotton Aphid (Aphis gossypii, APHIGO) (“CA”).
Stock solutions of Formula One and one or more of the active ingredients were prepared at concentrations of 1 mg/mL using a 1:1 mixture of acetone: methanol as a diluent. The stock solutions were prepared with Formula One as well as for each of the active ingredients individually. Test solutions were prepared from the stock solutions. Test solutions were prepared containing Formula One, the individual active ingredients, and mixtures of Formula One with each of the active ingredients. The test solutions for Formula One and the individual active ingredients were prepared by adding 1.5 mL of stock solution to a 30 mL glass vial, then adding 1.5 mL of 1:1 acetone: methanol solvent, followed by the addition of 27 mL water with 0.025% Tween® 20 to create a […]. Each test solution was serially diluted to create desired doses of test solutions ranging from 0.000001 to 0.0025% (w/v). The test solutions were tested against CA using the following procedure: cotton seedlings were grown in 3-inch pots with one true leaf (2-5 cm in diameter) were used as test substrate. The seedlings were infested with 20-50 CA (wingless adult and nymph stages) one day prior to chemical application. Four pots with individual seedlings were used for each treatment. A hand-held aspirator-type sprayer was used for spraying a solution to both sides of […] leaves until runoff. Reference plants (solvent check) were sprayed with the diluent only (0.025% Tween® 20 and 10% acetone:methanol (1:1) in water). Treated plants were held in a holding room for three days at approximately 25° C. and ambient relative humidity (RH about 20% to about 45%) prior to grading. Evaluation was conducted by counting the number of live aphids per plant under a microscope three days after treatment. Percent control was measured using Abbott's correction formula (W. S. Abbott, J. Econ. Entomol. 18 (1925), pp. 265-267) as follows:
(§5) where X=No. of live aphids on solvent check plants and Y=No. of live aphids on treated plants. In Table B1 the “Expected % Control” was calculated using the method described in Colby S. R., Weeds, 1967, 15, 20-22. Bioassay 8: Sweet Potato Whitefly (Bemisia tabaci, BEMITA) (“SPW”).

[5] = tested on: Sweet Potato Whitefly (Bemisia tabaci, BEMITA); assay: Bioassay 8: Sweet Potato Whitefly, spray on cotton seedlings at crawler emergence, nymphs counted 7-9 days after treatment; settings: AI alone 0.1 (10^-5) Wt %
Description: as §5
as §1, with “0.0000001% (w/v), […] and 0.00000001%” for “0.0000001% (w/v), and 0.00000001%”
as §2, §4

`C[C@]1(COC(=O)C2CC2)[C@@H]2C[C@H](O)[C@@]3(C)Oc4cc(-c5cccnc5)oc(=O)c4[C@H](O)[C@@H]3[C@@]2(C)CC[C@@H]1OC(=O)C1CC1` [Afidopyropen] was tested, and the “Average % Control AI” value ([1]; AI alone 0.1 (10-5) % w/v) was 0%, the “Average % Control AI” value ([1]; AI alone 1 (10-5) % w/v) was 0% and the “Average % Control AI” value [2] was 25%.

In the case of `CC1(C)[C@H](C(=O)O[C@H](C#N)c2cccc(Oc3ccccc3)c2)[C@@H]1C=C(Br)Br` [Deltamethrin], the “Average % Control AI” value ([3]; AI alone 5 (10^-5) Wt %) is reported as 30.43%, the “Average % Control AI” value ([3]; AI alone 10 (10^-5) Wt %) is reported as 15.22% and the “Average % Control AI” value ([3]; AI alone 20 (10^-5) Wt %) is reported as 30.43%. For the same compound, the “Average % Control A1” value ([4]; AI alone 0.78 (10^-5) Wt %) was 26.73%, the “Average % Control A1” value ([4]; AI alone 2.5 (10^-5) Wt %) was 34.23% and the “Average % Control A1” value ([4]; AI alone 10 (10^-5) Wt %) was 34.23%. For the same compound, the “Average % Control A1” value [5] was 35.94%.

In the case of `Cc1cc(C)c(C2=C(OC(=O)CC(C)(C)C)C3(CCCC3)OC2=O)c(C)c1` [Spiromesifen], the “Average % Control AI” value ([1]; AI alone 0.1 (10-5) % w/v) is reported as 0% and the “Average % Control AI” value [2] is reported as 0%.

For Tetraniliprole, the “Average % Control AI” value ([3]; AI alone 0.1 (10^-5) Wt %) was 16.67%, the “Average % Control AI” value ([3]; AI alone 1 (10^-5) Wt %) was 50.00% and the “Average % Control AI” value ([3]; AI alone 5 (10^-5) Wt %) was 41.67%. The “Average % Control A1” value ([4]; AI alone 0.1 (10^-5) Wt %) was 44.54%, the “Average % Control A1” value ([4]; AI alone 0.8 (10^-5) Wt %) was 7.23% and the “Average % Control A1” value [5] was 40.00%.
